# Measured values published in paper PMC8443589, “Modelling human liver fibrosis in the context of non-alcoholic steatohepatitis using a microphysiological system” (Communications Biology, 2021).
# System: liver MPS NASH model (PHH, KC and HSC co-cultures)
# Assay: Cue study: secreted cytokines and chemokines (Luminex) with varying NPC number and added cues (Fig 5a, 5b)
# Assay type: cell-based, human
# Conditions: Fat media + cue
# From the text: There is only limited understanding of the pathogenic drivers of NASH and their interaction, principally due to a lack of translational models that are amenable to detailed molecular analysis[2],[34]. Here, a systems biology ‘cue-signal-analysis’ paradigm[35],[36] was utilised to produce large factorial datasets to enable the identification of molecular pathways of importance. […] To create varying set ups of the NASH microtissues we created hepatocyte microtissues in the MPS with high numbers of NPC (60,000 KC and HSC—equivalent to 10% of microtissue population) and low numbers of NPCs (6000 KC and HSC—equivalent to 1% of microtissue), representing physiological and non-physiological cell ratios respectively. Next, we took these different microtissues and cultured them in media with or without FFA. Finally, we supplemented the media with lipopolysaccharide (LPS), TGFβ, fructose or cholesterol either as single ‘cues’, in pairs or all together (Fig. 4a). ‘Cues’ were selected for clinical association with NASH. LPS, is a pleiotropic inflammatory molecule, it is proposed to reach the liver via the hepatic portal vein after release from the gastrointestinal tract, contributing to disease progression[37],[38]. TGFβ has been extensively studied in relation to fibrosis due to its regulation of genes controlling collagen and matrix-modifying enzymes. Fructose is a key substrate for de-novo lipogenesis, a process that has been identified as a key event in lipid accumulation within NAFLD patients. Finally, cholesterol accumulation has also been linked to NASH disease aetiology.
# Assessment of gene expression changes was supplemented by assessment of the secretome produced by NASH microtissues in the MPS after exposure to the various cues. Increased pro-inflammatory cytokine secretion is a defining characteristic in NASH patients, so we conducted a Luminex cytokine array covering 42 different biomarkers, cytokines and chemokines secreted into the culture media of the different microtissues at multiple time points. […]
substance,measurement,setting,value
TGF-β,EGF relative expression (z-transformation),Day 6,-0.6947
same,Eotaxin relative expression (z-transformation),Day 6,-0.9288
same,FGF-2 relative expression (z-transformation),Day 6,0.0308
same,Fit-3L relative expression (z-transformation),Day 6,-0.07468
same,Fractalkine relative expression (z-transformation),Day 6,-0.6368
same,G-CSF relative expression (z-transformation),Day 6,0.1243
same,GRO relative expression (z-transformation),Day 6,-0.2928
same,IFN-a2 relative expression (z-transformation),Day 6,0.07826
same,IL-1RA relative expression (z-transformation),Day 6,-0.2716
same,IL-4 relative expression (z-transformation),Day 6,-0.7382
same,IL-6 relative expression (z-transformation),Day 6,0.4237
same,IL-7 relative expression (z-transformation),Day 6,-0.09812
same,IL-8 relative expression (z-transformation),Day 6,0.2731
same,IL-15 relative expression (z-transformation),Day 6,0.3864
same,IP-10 relative expression (z-transformation),Day 6,-0.5991
same,MCP-1 relative expression (z-transformation),Day 6,-0.1254
same,MCP-3 relative expression (z-transformation),Day 6,-0.3354
same,MDC relative expression (z-transformation),Day 6,1.089
same,MIP-1a relative expression (z-transformation),Day 6,-0.3189
same,MIP-1b relative expression (z-transformation),Day 6,-0.5904
same,TNFa relative expression (z-transformation),Day 6,-0.3323
same,VEGF relative expression (z-transformation),Day 6,0.1644
same,EGF relative expression (z-transformation),Day 11,0.4971
same,Eotaxin relative expression (z-transformation),Day 11,-0.7902
same,FGF-2 relative expression (z-transformation),Day 11,1.282
same,Fit-3L relative expression (z-transformation),Day 11,-1.046
same,Fractalkine relative expression (z-transformation),Day 11,0.2445
same,G-CSF relative expression (z-transformation),Day 11,1.379
same,GM-CSF relative expression (z-transformation),Day 11,-0.7569
same,GRO relative expression (z-transformation),Day 11,-0.05931
same,IFN-a2 relative expression (z-transformation),Day 11,-0.7423
same,IL-1RA relative expression (z-transformation),Day 11,1.044
same,IL-4 relative expression (z-transformation),Day 11,2.047
same,IL-6 relative expression (z-transformation),Day 11,-0.4878
same,IL-7 relative expression (z-transformation),Day 11,0.613
same,IL-8 relative expression (z-transformation),Day 11,1.674
same,IL-15 relative expression (z-transformation),Day 11,1.1283
same,IP-10 relative expression (z-transformation),Day 11,-0.5014
same,MCP-1 relative expression (z-transformation),Day 11,-0.1617
same,MCP-3 relative expression (z-transformation),Day 11,1.036
same,MDC relative expression (z-transformation),Day 11,-0.8939
same,MIP-1a relative expression (z-transformation),Day 11,-0.2467
same,MIP-1b relative expression (z-transformation),Day 11,-0.2666
same,TNFa relative expression (z-transformation),Day 11,-0.5851
same,VEGF relative expression (z-transformation),Day 11,0.04572
same,EGF relative expression (z-transformation),Day 14,-0.7709
same,Eotaxin relative expression (z-transformation),Day 14,-0.8142
same,FGF-2 relative expression (z-transformation),Day 14,-0.6405
same,Fit-3L relative expression (z-transformation),Day 14,-1.202
same,Fractalkine relative expression (z-transformation),Day 14,-0.4453
same,G-CSF relative expression (z-transformation),Day 14,2.694
same,GM-CSF relative expression (z-transformation),Day 14,-0.9022
same,GRO relative expression (z-transformation),Day 14,-0.07849
same,IFN-a2 relative expression (z-transformation),Day 14,0.3354
same,IL-1RA relative expression (z-transformation),Day 14,0.4791
same,IL-4 relative expression (z-transformation),Day 14,0.3542
same,IL-6 relative expression (z-transformation),Day 14,-0.7405
same,IL-7 relative expression (z-transformation),Day 14,-0.2291
same,IL-8 relative expression (z-transformation),Day 14,1.963
same,IL-15 relative expression (z-transformation),Day 14,1.049
same,IP-10 relative expression (z-transformation),Day 14,-0.2731
same,MCP-1 relative expression (z-transformation),Day 14,-0.3727
same,MCP-3 relative expression (z-transformation),Day 14,1.8775
same,MDC relative expression (z-transformation),Day 14,-0.4908
same,MIP-1a relative expression (z-transformation),Day 14,-0.1191
same,MIP-1b relative expression (z-transformation),Day 14,-0.282
same,TNFa relative expression (z-transformation),Day 14,-0.5429
same,VEGF relative expression (z-transformation),Day 14,-0.6644
